Data: patent US11869191B2, “System and method for tissue viability screening” (THE REGENTS OF THE UNIVERSITY OF CALIFORNIA, priority 2019, dated 2024)

Test system: pre-implantation mouse embryos
Assay: Inhibition of glycolysis, phasor-FLIM of NADH lifetime in embryos
Type: cell-based
Conditions: 1 mM, early blastocyst stage embryos; g value vs control p-value=3.88E-09
Protocol: Embryos were placed in 25 μl microdroplets of KSOMaa (Invitrogen) with the appropriate inhibitors covered in mineral oil (Sigma). Both of the two chemical inhibitors, rotenone and antimycin A cocktail (R&A) and 2-Deoxyglucose (2DeoxyG) were dissolved in KSOMaa. For R&A, the inhibitor was prepared to perform dose dependence measurements for a final concentration of 100 nM and 500 nM. For 2DeoxyG, the inhibitor has a final concentration of 1 mM. KSOMaa was used as a solvent and culture media for the control group and treatment group embryos.
Fluorescence lifetime images of the pre-implantation embryos were acquired on Zeiss LSM710 (Carl Zeiss, Jena, Germany), a multi-photon microscope coupled with a Ti: Sapphire laser (Spectra-Physics Mai Tai, Mountain View, CA) with 80 MHz repetition rate. […] A dichroic filter at 690 nm was used to separate the fluorescence signal from the laser light. And the emission signal was split with 496 nm LP filter and detected in two channels using a band pass filter 460/80 and a 540/50 filter. […] FLIM calibration of the system was performed by measuring the known lifetime of a fluorophore coumarin 6 (dissolved in ethanol), which has a known fluorescence lifetime of T=2.5 ns(37, 38). […] FLIM data were acquired and processed by the SimFCS software developed at the Laboratory of Fluorescence Dynamics (LFD). […]

## O=CC[C@@H](O)[C@H](O)[C@H](O)CO [2DeoxyG, 2-Deoxy-D-Glucose]
  phasor-FLIM lifetime distribution (free/bound NADH) compared to controls: shifted the phasor-FLIM distribution to longer lifetime
